Source: patent US9868736B2, “Deubiquitinase inhibitors and methods for use of the same” (THE REGENTS OF THE UNIVERSITY OF MICHIGAN, priority 2013, dated 2018)
“Also recorded” adds a separate entry of the source.

Legend:
[1] = test system: CD34+ cells from normal donors and myeloma cell lines (MM1.S, H929); assay: apoptosis by annexin V staining (flow cytometry); type: cell-based; details: 24 hours
Procedure: Cellular apoptosis was measured by detection of annexin V on the surface of cells using flow cytometry. Cells were treated with the indicated concentration of G9 for 24 hours before assessing annexin positivity as an indication of […] using duplicate assays derived from duplicate samples. CD34+ cells from two normal donors (left) or two myeloma cell lines (right) were treated with the indicated concentration of G9 for 24 hours before measuring cell survival by annexin V staining (assessed by flow cytometry). Each data point represents the average of 2 samples assayed in duplicate and presented as the average+/−S.D. for each G9 concentration.

A375 tumors = assay: A375 melanoma tumor growth in NSG mice; type: in vivo
Procedure: G9 suppresses Usp9x activity in A375 melanoma cells. The effect of G9 on the growth of A375 tumors in NSG mice was examined. Two million A375 cells in Matrigel: cell culture media (1:1) in 0.1 mL were injected subcutaneously in the dorsal region of 9 female NSG mice. After tumor growth to a measurable level (2 weeks post inoculation) animals were separated into 3 groups and mice received 0, 7.5 or 15 mg/kg G9 (prepared as described above) daily by IP injection for 8 days. Tumor volume (left) and animal weight (right) were measured every other day throughout the treatment interval and are reported in FIG. 6. […] Three animals per treatment group were evaluated in this study. Each data point represents the average+/−S.D. of measurements made in three mice. P-values were calculated using GraphPad Instat. P-values<0.05 are considered significant.
A375 tumors grown as subcutaneous implants in NSG mice were separated into three groups and received once daily ip injections with vehicle control (PEG300/DMSO) or G9 at doses of 7.5 or 15 mg/kg. Tumor growth, animal weight, behavior and mobility were monitored during treatment.

[2] = plasma level in mice after IV, PO or IP administration (LC/MS); type: in vivo, Balb/c mice; details: for concentration at 0.5 h / concentration at 2 h / concentration at 4 h / concentration at 7 h / AUC(0-t) / half-life: Balb/c, mouse, plasma
Procedure: To determine whether G9 or 067 had anti-tumor activity in animals, we first assessed their properties in mice when introduced intravenously (IV) or by oral gavage (PO). G9 or 067 was administered once to two mice per group at the indicated dosage level and route (IV or PO) and plasma was collected at the time point indicated after administration. Compound concentration in the plasma was measured by high performance liquid chromatography coupled with mass spectroscopy detection (LC/MS).
Balb/c mice were treated with either 067 or G9 dissolved in dimethyl sulfoxide: polyethylene glycol 300 (1:1) and administered as indicated. The level of each compound in the plasma of each mouse at the time point indicated is shown in the line graph. The area under the curve (AUC) was calculated and tabulated below each line graph. […] The level of each compound in the plasma of each mouse at the time point indicated is shown Table 2. Several pharmacokinetic parameters were also calculated. […] The half-life of G9 was similar to 067 when administered by IP injection (30-60 min). Based on these assessments, G9 was further evaluated for anti-tumor activity in mice.

[3] = test system: Sindbis virus, Tulane virus, LaCrosse virus, Norwalk virus replicon; assay: antiviral screen against a variety of viruses; type: cell-based; details: Vero (Sindbis), LLC-MK (Tulane), Be2-c (LaCrosse), Norwalk virus replicon-containing cells, FIG. 9
[4] = 7.5 or 15 mg/kg daily IP for 8 days
[5] = intravenous, 10 mg/kg, IV1 10 mg/kg
[6] = intravenous, 10 mg/kg, IV2 10 mg/kg

CCCC(NC(=O)/C(C#N)=C/c1nc(Cl)ccc1Cl)c1ccc(OCCN2CCOCC2)cc1 (stereo not shown) [Compound G9, (E)-2-Cyano-3-(3,6-dichloropyridin-2-yl)-N-(1-(4-(2-morpholinoethoxy)phenyl)butyl)acrylamide]
apoptotic sensitivity of myeloma tumor cells versus normal CD34+ cells [1]: more apoptotically sensitive to G9 than normal CD34+ cells | effectiveness in inducing apoptosis, tumor (myeloma) versus normal CD34+ cells [1]: ~10 fold | side effects: behavior and mobility (A375 tumors; 7.5 or 15 mg/kg daily IP): did not observe changes in behavior or mobility; also recorded: did not have any notable side effects | A375 tumor growth (A375 tumors; [4]): suppressed A375 tumor growth; also recorded: completely suppressed tumor growth; also recorded: reduced tumor growth | animal weight (A375 tumors; [4]): modest impact on animal weight; also recorded: not significantly different | concentration at 0.5 h [2, 5]: 1880 ng/mL | concentration at 2 h [2, 5]: 395 ng/mL | concentration at 4 h [2, 5]: 126 ng/mL | concentration at 7 h [2, 5]: 38.6 ng/mL | concentration at 0.5 h [2, 6]: 1220 ng/mL | concentration at 2 h [2, 6]: 520 ng/mL | concentration at 4 h [2, 6]: 289 ng/mL | concentration at 7 h [2, 6]: 208 ng/mL | AUC(0-t) ([2]; iv, 10 mg/kg, IV1 10 mg/kg): 3730 ng·h/mL | AUC(0-t) ([2]; iv, 10 mg/kg, IV2 10 mg/kg): 3570 ng·h/mL | concentration at 0.5 h ([2]; oral, 30 mg/kg, PO1 30 mg/kg): 60.8 ng/mL | concentration at 2 h ([2]; oral, 30 mg/kg, PO1 30 mg/kg): 35.8 ng/mL | concentration at 4 h ([2]; oral, 30 mg/kg, PO1 30 mg/kg): 44.5 ng/mL | concentration at 7 h ([2]; oral, 30 mg/kg, PO1 30 mg/kg): 37.6 ng/mL | concentration at 0.5 h ([2]; oral, 30 mg/kg, PO2 30 mg/kg): 78.7 ng/mL | concentration at 2 h ([2]; oral, 30 mg/kg, PO2 30 mg/kg): 59 ng/mL | concentration at 4 h ([2]; oral, 30 mg/kg, PO2 30 mg/kg): 57.1 ng/mL | concentration at 7 h ([2]; oral, 30 mg/kg, PO2 30 mg/kg): 16.1 ng/mL | AUC(0-t) ([2]; po, 30 mg/kg, PO1 30 mg/kg): 291 ng·h/mL | AUC(0-t) ([2]; po, 30 mg/kg, PO2 30 mg/kg): 349 ng·h/mL | half-life ([2]; mice, IP injection): 0.5 to 1 h | half-life ([2]; mice, IV or PO study of Table 2): 1.5 to 2 h | bio-availability following IV administration ([2]; mice, IV): bio-available following IV administration | peak plasma levels, G9 compared with 067 ([2]; mice, IV): higher peak levels | oral bio-availability ([2]; mice, PO): poor oral bio-availability | antiviral activity against a variety of viruses [3]: mild to high antiviral activity; also recorded: antiviral activity against Sindbis virus and La Crosse virus
